According to patent publication US20200054682A1, “METHODS AND COMPOSITIONS FOR TREATING MITOCHONDRIAL DISEASE OR DISORDERS AND HETEROPLASMY” (Imel Biotherapeutics, Inc., priority 2018, published 2020):
Entries after “also recorded” stand apart in the source; their conditions may differ.

What was measured:
NHDF recipient cells = assay: engulfment of DsRed-labeled exogenous mitochondria by FACS with rapamycin or palmitic acid; type: cell-based, human; conditions: ρ(−) NHDF cells; rapamycin 50 ng/ml, palmitic acid 50 μM; FACS day 8
Protocol: Rapamycin was added into the culture media at the concentration of 50 ng/ml for 24 hours, and cells were exposed to glucose and essential amino acids free media without serum for 1 hour to simulate starvation. […] The ratio of phosphorylated AMPK to AMPK and phosphorylated p70 S6 kinase to p70 S6 kinase, which is a downstream target of mTORC1, were examined by using capillary electrophoresis, Wes™ (Protein Simple).
Next, we examined the effects of rapamycin and palmitic acid upon mitochondria engulfment by treating the cells with rapamycin or palmitic acid simultaneously during the mitochondria co-cultivation. A scheme of the protocol is illustrated in FIG. 6I. Briefly, the NHDF recipient cells were transfected with the MTS-XbaI expression vector and cultured with or without rapamycin, or with or without palmitic acid (PA). Puromycin selection for ρ(−) cells expressing the MTS-XbaI was performed after 48 hours. On day 6, transfer of isolated mitochondria marked with DsRed from EPC100 cells was performed. On Day8, FACS analyses were performed to detect the donor mitochondria by measuring DsRed expression in the NHDF recipient cells.

mtDNA = mtDNA copy number by qPCR, MTS-XbaIR versus EtBr, in EPC100 cells; type: cell-based, human; conditions: qPCR relative to Actb, EtBr 50 ng/mL, untreated cells 6189.6867
Protocol: The efficiency and efficacy of the MTS-XbaIR expression vector relative to the conventional method that employs ethidium bromide (EtBr) was evaluated according to the scheme illustrated in FIG. 2A. The placental venous endothelium-derived cell line EPC100 with DsRed labeled mitochondria were cultured in pyruvate-free DMEM (Wako cat #044-29765) with 10% fetal bovine serum (FBS) and 1% penicillin/streptomycin (P/S), and at day 0 the cells were either untreated (“normal”), transfected with the MTS-XbaIR expression vector (“MTS-XbaIR”), or treated with 50 ng/mL of EtBr. At day 1, the cells were cultured in DMEM with 10% FBS, and 1% P/S supplemented with 100 μg/mL pyruvate and 50 μg/mL uridine. […] Cells with this partial reduction of mtDNA were termed as ρ(−) cells.

## CCCCCCCCCCCCCCCC(=O)O [palmitic acid]
NHDF recipient cells
  engulfment of DsRed-labeled isolated exogenous mitochondria: decreased; also recorded: clearly suppressed

## CC[n+]1c(-c2ccccc2)c2cc(N)ccc2c2ccc(N)cc21 [EtBr, ethidium bromide]
mtDNA
  mtDNA copy number: 5169.1258
